Laboratory results reported in US20090143279A1 (priority 2007, published 2009).
“And” between values parts separate entries of the source, which are not always exact repeats. Equal entries are not always repeated. Where two headings read alike, the source gives them in different places.

What was measured:
nuOXPHOS transcripts = assay type: cell-based, mouse
mtOXPHOS transcripts = assay type: cell-based, mouse
reactive oxygen species = assay type: cell-based, mouse
OXPHOS gene expression = assay type: cell-based, mouse
cytochrome c = assay type: cell-based, mouse
cytochrome c, sequence (P62897 whole entry): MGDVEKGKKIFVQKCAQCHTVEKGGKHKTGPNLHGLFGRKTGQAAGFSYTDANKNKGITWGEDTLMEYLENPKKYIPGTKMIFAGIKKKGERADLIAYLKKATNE

[1] = test system: mitochondrial membrane potential; assay type: cell-based, mouse
[2] = test system: cellular dehydrogenase activity
[3] = Table 7, C2C12 myotubes, 48 h, composite Z-score
[4] = Table 3, differentiated C2C12 myotubes, 48 h treatment, composite Z-score vs DMSO
[5] = Table 5, C2C12 myotubes, 48 h, composite Z-score
[6] = retest at 20 nM to 20 μM, FIG. 6a
[7] = composite Z-score vs DMSO, Conc 20 μM
[8] = normalized composite Z-score vs mock-treated (DMSO) wells, Conc 20 μM
[9] = Table 6, C2C12 myotubes, 48 h, composite Z-score
[10] = composite Z-score vs mock-treated (DMSO) wells, Conc 20 μM
[11] = 20 μM, composite Z-score vs DMSO

## O=C1C(Cl)=C(Cl)C(=O)C(Cl)=C1Cl [Chloranil, reference compound]
nuOXPHOS transcripts; [3]
  nucOXPHOS Z: −2.45
mtOXPHOS transcripts; [3]
  mito-OXPHOS Z: 2.50

## COc1cc2c(c(OC)c1OC)-c1ccc(OC)c(=O)cc1[C@@H](NC(C)=O)CC2 [Colchicine, reference compound]
Reactive oxygen species
  ROS levels: did not display the same decrease in ROS levels
OXPHOS gene expression
  OXPHOS expression: modest increase
nuOXPHOS transcripts
  nucOX: 0.807 and 1.549

## CC[C@H]1CN2CCc3cc(OC)c(OC)cc3[C@@H]2C[C@@H]1C[C@H]1NCCc2cc(OC)c(OC)cc21 [Emetine, reference compound]
nuOXPHOS transcripts
  nuOXPHOS expression: preferentially increase
Cytochrome c
  cyt c: −1.644
  cyt c (composite Z-score): −0.191

## COC(=O)Nc1nc2cc(C(=O)c3cccs3)ccc2[nH]1 [Nocodazole, methyl[5-(2-thienylcarbonyl)-1H-benzimidazol-2-yl]carbamate, reference compound]
Reactive oxygen species; [4]
  ROS Zscore: −1.099
Reactive oxygen species; [5]
  ROS Zscore: −1.099
Reactive oxygen species; primary screen, in words
  ROS levels: suppressing ROS levels
Reactive oxygen species; [6]
  dose at which ROS levels decreased: 2 µM
OXPHOS gene expression; [4]
  GEHTS_Zscore: 2.675
OXPHOS gene expression; [5]
  GEHTS_Zscore: 2.675
OXPHOS gene expression; primary screen, in words
  OXPHOS expression: boost OXPHOS expression
OXPHOS gene expression; [6]
  dose at which OXPHOS expression increased: 2 µM

## OCCN1CCN(CCCN2c3ccccc3Sc3ccc(Cl)cc32)CC1 [Perphenazine, reference compound]
nuOXPHOS transcripts; 20 μM, within the first hour of treatment
  decline of nuOXPHOS expression: 21%

## CC(=O)Nc1ccc(O)cc1 [acetaminophen]
Reactive oxygen species
  ROS: 0.527
mtOXPHOS transcripts
  mitoOX: 0.317

## CCCSc1ccc2nc(NC(=O)OC)[nH]c2c1 [albendazole, reference compound]
Reactive oxygen species
  ROS Zscore: −1.434
OXPHOS gene expression
  GEHTS_Zscore: 2.379
Cytochrome c
  cyt c: −0.280

## C=C(C)[C@@H]1CC[C@]2(CO)CC[C@]3(C)[C@H](CC[C@@H]4[C@@]5(C)CC[C@H](O)C(C)(C)[C@@H]5CC[C@]43C)[C@@H]12 [betulin]
nuOXPHOS transcripts
  nucOX: 0.598

## CC1=C(O)C(=O)C=C2C1=CC=C1[C@@]2(C)CC[C@@]2(C)[C@@H]3C[C@](C)(C(=O)O)CC[C@]3(C)CC[C@]12C [celastrol]
[1]; [7]
  ΔΨm: −3.520
Reactive oxygen species; [7]
  ROS: −2.732
Cytochrome c; [7]
  cyt c: −5.979
C2C12 myotubes; [7]
  Viability: −4.797
[2]; [7]
  MTT: −6.584

## Cc1cc(C2CCCCC2)n(O)c(=O)c1.NCCO [ciclopirox ethanolamine]
[1]
  ΔΨm: 2.994
Reactive oxygen species
  ROS: −1.968
Cytochrome c
  cyt c: −0.351
C2C12 myotubes
  Viability: 0.101
[2]
  MTT: −2.239

## O=c1cccc2n1C[C@@H]1CNC[C@H]2C1 [cytisine]
Reactive oxygen species
  ROS: 1.150
OXPHOS gene expression
  GE-HTS: 0.025
Cytochrome c
  cyt c: 0.186 and 0.095

## C[C@H]1C/C=C/[C@H]2[C@@H]3O[C@]3(C)[C@@H](C)[C@H]3[C@H](Cc4ccccc4)NC(=O)[C@]32OC(=O)O/C=C/[C@@](C)(O)C1=O [cytochalasin e, reference compound]
Reactive oxygen species; [4]
  ROS Zscore: −2.109
OXPHOS gene expression; [4]
  GEHTS_Zscore: 2.827

## C[C@@H]1CC[C@@]23CCC4(C)[C@@](C=CC5[C@@]6(C)CC[C@H](O)C(C)(C)C6CC[C@]54C)(OC2=O)C3[C@H]1C (stereo partly drawn) [dehydro (11,12)ursolic acid lactone]
[1]
  ΔΨm: −0.429
Reactive oxygen species
  ROS: 0.385
Cytochrome c; [8]
  cyt c: −0.175
C2C12 myotubes
  Viability: −0.003
[2]
  MTT: 0.402

## COc1ccc2c(c1)OCC(Cc1ccc(OC(C)=O)c(OC)c1)C2=O (stereo not drawn) [deoxysappanone (B) 7,3′-dimethyl ether acetate, reference compound]
Reactive oxygen species; [9]
  ROS Zscore: −1.894
OXPHOS gene expression; [9]
  GEHTS_Zscore: −0.723

## COc1ccc2c(c1)OCC(Cc1ccc(OC)c(OC)c1)C2=O (stereo not drawn) [deoxysappanone (B) trimethyl ether, reference compound]
Reactive oxygen species; [9]
  ROS Zscore: 1.064
OXPHOS gene expression; [9]
  GEHTS_Zscore: 0.768

## CC(C)=CCCC1(C)C=Cc2c(O)c3c(c(CC=C(C)C)c2O1)OC12C(=CC4CC1C(C)(C)OC2(C/C=C(/C)C(=O)O)C4O)C3=O (stereo not drawn) [dihydrogambogic acid]
[1]; [10]
  ΔΨm: −3.431
Reactive oxygen species; [10]
  ROS: −2.239
Cytochrome c; [10]
  cyt c: −5.191
C2C12 myotubes; [10]
  Viability: −5.468
[2]; [10]
  MTT: −6.208

## COc1ccc2c(c1)CC[C@@H]1[C@@H]2CC[C@]2(C)[C@@H](O)[C@H](O)C[C@@H]12 [estriol methyl ether]
[1]
  ΔΨm: −0.046
Reactive oxygen species
  ROS: 0.299
Cytochrome c; [7]
  cyt c: 0.241
C2C12 myotubes
  Viability: 0.054
[2]
  MTT: −1.611

## COC1=CC(=O)C[C@@H](C)[C@]12Oc1c(Cl)c(OC)cc(OC)c1C2=O [griseofulvin, reference compound]
Reactive oxygen species; [5]
  ROS Zscore: 0.371
Reactive oxygen species; primary screen, in words
  ROS levels: did not display the same decrease in ROS levels
OXPHOS gene expression; [5]
  GEHTS_Zscore: 2.199
OXPHOS gene expression; primary screen, in words
  OXPHOS expression: modest increase

## CC(=O)N(CC(O)CO)c1c(I)c(C(=O)NCC(O)CO)c(I)c(C(=O)NCC(O)CO)c1I (stereo not drawn) [iohexol]
[1]
  ΔΨm: −0.970
Reactive oxygen species
  ROS: 0.568
Cytochrome c
  cyt c: 0.080
C2C12 myotubes
  Viability: −0.374
[2]
  MTT: −1.085

## O=C1C[C@@H](c2ccc(O)cc2)Oc2cc(O)ccc21 [liquiritigenin]
[1]; [8]
  ΔΨm: 1.004
Reactive oxygen species; [8]
  ROS: 0.301
OXPHOS gene expression; [8]
  GE-HTS: −0.749
mtOXPHOS transcripts; [8]
  mitoOX: −1.069
Cytochrome c; [8]
  cyt c: 0.523
C2C12 myotubes; [8]
  Viability: 1.353
[2]; [8]
  MTT: −0.429

## N[C@@H](C(=O)N[C@@H]1C(=O)N2C(C(=O)O)=C(Cl)CC[C@H]12)c1ccccc1 [loracarbef]
[1]
  ΔΨm: −0.229
Reactive oxygen species
  ROS: −0.236
Cytochrome c
  cyt c: 0.622
C2C12 myotubes
  Viability: 0.317
[2]
  MTT: −0.158

## CCOC(=O)N1CCC(=C2c3ccc(Cl)cc3CCc3cccnc32)CC1 [loratadine]
[1]
  ΔΨm: 0.191
Reactive oxygen species
  ROS: 0.764
OXPHOS gene expression
  GE-HTS: −0.306
Cytochrome c
  cyt c: −0.317
C2C12 myotubes
  Viability: 0.552
[2]
  MTT: −1.609

## CC [methylmethane]
[1]
  ΔΨm: −0.924
Reactive oxygen species
  ROS: 0.909
Cytochrome c
  cyt c: 0.221
C2C12 myotubes
  Viability: −1.159
[2]
  MTT: −1.330

## COC1=CC(=O)C(O)=C/C1=C\C=C\c1ccccc1 [obtusaquinone]
[1]; [7]
  ΔΨm: −3.829
Reactive oxygen species; [7]
  ROS: −1.119
Cytochrome c; [7]
  cyt c: −5.381
C2C12 myotubes; [7]
  Viability: −4.658
[2]; [7]
  MTT: −6.409

## CC(=O)CCCCn1c(=O)c2c(ncn2C)n(C)c1=O [pentoxifylline]
[1]; [11]
  ΔΨm: −0.696
Reactive oxygen species; [11]
  ROS: 0.182
OXPHOS gene expression; [11]
  GE-HTS: 0.062
nuOXPHOS transcripts; [11]
  nucOX: 0.292
Cytochrome c; [11]
  cyt c: −0.798
C2C12 myotubes; [11]
  Viability: 0.375
[2]; [11]
  MTT: −0.600

## CC(=O)O[C@H]1CC[C@@]2(C)C(=CC[C@@H]3[C@@H]2CC[C@]2(C)C(=O)CC[C@@H]32)C1 [praesterone acetate]
[1]
  ΔΨm: 1.329
Reactive oxygen species
  ROS: 0.054
Cytochrome c
  cyt c: −0.521
C2C12 myotubes
  Viability: 1.018
[2]
  MTT: 1.084

## COC(=O)[C@]1(C)CC[C@]2(C)CC[C@]3(C)C4=CC=C5C(=CC(=O)C(O)=C5C)[C@]4(C)CC[C@@]3(C)[C@@H]2C1 [pristimerin]
[1]; [7]
  ΔΨm: −3.651
Reactive oxygen species; [7]
  ROS: −3.693
Cytochrome c; [7]
  cyt c: −5.896
C2C12 myotubes; [7]
  Viability: −5.473
[2]; [7]
  MTT: −6.164

## C=C(C)/C=C1/C=CC(=O)C(C)=C1 [retusoquinone]
[1]; [10]
  ΔΨm: −3.628
Reactive oxygen species; [10]
  ROS: −3.565
Cytochrome c; [10]
  cyt c: −5.303
C2C12 myotubes; [10]
  Viability: −5.371
[2]; [10]
  MTT: −6.075

## C=C(C)CCCC(C)CCOC(C)=O (stereo not drawn) [rhodinyl acetate]
[1]
  ΔΨm: −0.631
Reactive oxygen species
  ROS: −0.024
Cytochrome c
  cyt c: 0.137
C2C12 myotubes
  Viability: −0.197
[2]
  MTT: −0.833

## COc1ccc2c(c1)OCC(=Cc1ccc(O)c(O)c1)C2=O [sappanone (A) 7-methyl ether, reference compound]
Reactive oxygen species; [9]
  ROS Zscore: −1.493
OXPHOS gene expression; [9]
  GEHTS_Zscore: 1.410

## COc1ccc2c(c1)OC/C(=C/c1ccc(OC)c(OC)c1)C2=O [sappanone (A) trimethyl ether, reference compound]
Reactive oxygen species; [9]
  ROS Zscore: 0.1195
OXPHOS gene expression; [9]
  GEHTS_Zscore: 2.376

## COc1ccc2c(c1)OC[C@@H](Cc1ccc(OC)c(OC)c1)[C@H]2O [tetrahydrosappanone (A) trimethyl ether, reference compound]
Reactive oxygen species; [9]
  ROS Zscore: 0.274
OXPHOS gene expression; [9]
  GEHTS_Zscore: 0.583

## O=C1C(O)=C(O)C(=O)C(O)=C1O [tetrahydroxy-1,4-quinone]
[1]
  ΔΨm: −0.511
Reactive oxygen species
  ROS: 0.667
Cytochrome c
  cyt c: −0.785
C2C12 myotubes
  Viability: −1.006
[2]
  MTT: −1.965

## CN(C)CCCN1c2ccccc2Sc2ccc(C(F)(F)F)cc21 [triflupromazine]
Reactive oxygen species
  ROS: 1.208
OXPHOS gene expression
  GE-HTS: 0.225
nuOXPHOS transcripts
  nucOX: 0.404

## (S)-(−)-atenolol
[1]
  ΔΨm: 0.396
Reactive oxygen species
  ROS: −0.554
Cytochrome c
  cyt c: 0.030
C2C12 myotubes
  Viability: 0.012
[2]
  MTT: −0.552

## L-methionine sulfoximine
[1]
  ΔΨm: −0.703
Reactive oxygen species
  ROS: 0.762
Cytochrome c
  cyt c: −0.412
C2C12 myotubes
  Viability: −0.928
[2]
  MTT: −1.902

## dimenhydrinate
[1]; [7]
  ΔΨm: −0.890
Reactive oxygen species; [7]
  ROS: 0.339
OXPHOS gene expression; [7]
  GE-HTS: −0.225
nuOXPHOS transcripts; [7]
  nucOX: −0.086
[2]; [7]
  MTT: −1.505

## podophyllotoxin acetate [reference compound]
Reactive oxygen species; [4]
  ROS Zscore: −1.656
OXPHOS gene expression; [4]
  GEHTS_Zscore: 3.506

## pyrantel tartrate
[1]
  ΔΨm: −1.028
Reactive oxygen species
  ROS: 1.579
Cytochrome c
  cyt c: −0.306
C2C12 myotubes
  Viability: 0.330
[2]
  MTT: −1.214

## sappanone (A) dimethyl ether [reference compound]
Reactive oxygen species; [9]
  ROS Zscore: −2.429
OXPHOS gene expression; [9]
  GEHTS_Zscore: 0.524
